Measurements as given in ChEMBL document CHEMBL3784999, “Investigation of 4-amino-5-alkynylpyrimidine-2(1H)-ones as anti-mycobacterial agents” (Bioorg Med Chem, 2016).
≈ marks a conversion by molar mass, not a printed value.

System: Mycobacterium tuberculosis
Test: Antimycobacterial activity against Mycobacterium bovis BCG assessed as inhibition of mycobacterial replication after 6 days by microplate Alamar blue assay
Type: functional
Details: variant bovis BCG, 144 h

SMILES | MIC50 [µg/mL] | MIC90 [µg/mL]
CCCCCCCCC#Cc1c[nH]c(=O)nc1N | 50 (≈ 202 µM) | –
Nc1nc(=O)[nH]cc1C#Cc1ccccc1 | 25 (≈ 118 µM) | –
CO[C@H]1/C=C/O[C@@]2(C)Oc3c(C)c(O)c4c(O)c(c(/C=N/N5CCN(C)CC5)c(O)c4c3C2=O)NC(=O)/C(C)=C\C=C\[C@H](C)[C@H](O)[C@@H](C)[C@@H](O)[C@@H](C)[C@H](OC(C)=O)[C@@H]1C [RIFAMPIN] | – | 1 (≈ 1.22 µM)
CCCCCC#Cc1c[nH]c(=O)nc1N | 12.5 (≈ 60.9 µM) | –
